{"source": "patent US6143769A", "about": "“Phenylacetic acid benzylamides” (Karl Thomae GmbH, priority 1983, dated 2000)", "key": {"[1]": {"assay": "clinical", "details": "human, plasma, 1 mg", "protocol": "More specifically, the studies which follow were carried out on healthy male volunteers in whom the levels of glucose and active substance in the course of time were determined:\nIn the interests of more precise clarification, study 5 was carried out (randomised, open, crossover). […] 2 hours after administration a standard breakfast (B) was eaten, 5 hours after administration a standard lunch (L) was eaten and 10 hours after administration a standard dinner (D) was eaten. Blood samples were taken at different times. The glucose concentrations were measured in the plasma as in study 1. […] The plasma concentrations of AG-EE 624 ZW were calculated as the difference between the two concentrations found:"}, "[2]": {"tested_on": "glucose", "assay": "Study 5: plasma glucose after 1 mg AG-EE 388 ZW i.v., oral solution or capsule", "type": "in vivo, human", "from_the_text": "Blood samples were taken at different times."}, "[3]": {"assay": "Study 2: plasma concentration, HPLC", "type": "in vivo, human", "from_the_text": "Blood samples were taken at various times."}}, "data": [{"smiles": "CCOc1cc(CC(=O)NC(CC(C)C)c2ccccc2N2CCCCC2)ccc1C(=O)O", "note": "(racemic) [AG-EE 388 ZW, 2-ethoxy-4-[N-[1-(2-piperidino-phenyl)-3-methyl-1-butyl]aminocarbonylmethyl]-benzoic acid]", "values": [{"measurement": "concentration at 0.08 h", "setting": "[1]; iv", "result": 33.3, "unit": "ng/mL"}, {"measurement": "concentration at 0.17 h", "setting": "[1]; iv", "result": 74.8, "unit": "ng/mL"}, {"measurement": "concentration at 0.25 h", "setting": "[1]; iv", "result": 104, "unit": "ng/mL"}, {"measurement": "concentration at 0.28 h", "setting": "[1]; iv", "result": 102, "unit": "ng/mL"}, {"measurement": "concentration at 0.33 h", "setting": "[1]; iv", "result": 85.6, "unit": "ng/mL"}, {"measurement": "concentration at 0.42 h", "setting": "[1]; iv", "result": 69.6, "unit": "ng/mL"}, {"measurement": "concentration at 0.5 h", "setting": "[1]; iv", "result": 60.1, "unit": "ng/mL"}, {"measurement": "concentration at 0.75 h", "setting": "[1]; iv", "result": 44.2, "unit": "ng/mL"}, {"measurement": "concentration at 1 h", "setting": "[1]; iv", "result": 35.8, "unit": "ng/mL"}, {"measurement": "concentration at 1.25 h", "setting": "[1]; iv", "result": 31.4, "unit": "ng/mL"}, {"measurement": "concentration at 1.5 h", "setting": "[1]; iv", "result": 27, "unit": "ng/mL"}, {"measurement": "concentration at 2 h", "setting": "[1]; iv", "result": 21, "unit": "ng/mL"}, {"measurement": "concentration at 2.5 h", "setting": "[1]; iv", "result": 17.6, "unit": "ng/mL"}, {"measurement": "concentration at 3 h", "setting": "[1]; iv", "result": 13.5, "unit": "ng/mL"}, {"measurement": "concentration at 4 h", "setting": "[1]; iv", "result": 9.4, "unit": "ng/mL"}, {"measurement": "concentration at 5 h", "setting": "[1]; iv", "result": 7, "unit": "ng/mL"}, {"measurement": "concentration at 6 h", "setting": "[1]; iv", "result": 4, "unit": "ng/mL"}, {"measurement": "concentration at 9 h", "setting": "[1]; iv", "result": 1.5, "unit": "ng/mL"}, {"measurement": "concentration at 0.5 h", "setting": "[1]; po", "result": 35.1, "unit": "ng/mL"}, {"measurement": "concentration at 0.75 h", "setting": "[1]; po", "result": 40.2, "unit": "ng/mL"}, {"measurement": "concentration at 1 h", "setting": "[1]; po", "result": 39.1, "unit": "ng/mL"}, {"measurement": "concentration at 1.5 h", "setting": "[1]; po", "result": 30.8, "unit": "ng/mL"}, {"measurement": "concentration at 2 h", "setting": "[1]; po", "result": 24, "unit": "ng/mL"}, {"measurement": "concentration at 3 h", "setting": "[1]; po", "result": 14.8, "unit": "ng/mL"}, {"measurement": "concentration at 4 h", "setting": "[1]; po", "result": 8.7, "unit": "ng/mL"}, {"measurement": "concentration at 5 h", "setting": "[1]; po", "result": 5.6, "unit": "ng/mL"}, {"measurement": "concentration at 6 h", "setting": "[1]; po", "result": 3.5, "unit": "ng/mL"}, {"measurement": "concentration at 9 h", "setting": "[1]; po", "result": 1.8, "unit": "ng/mL"}, {"measurement": "Glucose (mean)", "setting": "[2]; 1 mg i.v., 0.00 h", "result": 6.10, "unit": "mmol/L"}, {"measurement": "Glucose (mean)", "setting": "[2]; 1 mg p.o. capsule, 0.00 h", "result": 5.32, "unit": "mmol/L"}, {"measurement": "Glucose (mean)", "setting": "[2]; 1 mg p.o. solution, 0.00 h", "result": 5.85, "unit": "mmol/L"}, {"measurement": "Glucose (mean)", "setting": "[2]; i.v., 0.08 h", "result": 6.54, "unit": "mmol/L"}, {"measurement": "Glucose (mean)", "setting": "[2]; i.v., 0.17 h", "result": 6.46, "unit": "mmol/L"}, {"measurement": "Glucose (mean)", "setting": "[2]; i.v., 0.25 h", "result": 6.46, "unit": "mmol/L"}, {"measurement": "Glucose (mean)", "setting": "[2]; i.v., 0.28 h", "result": 6.46, "unit": "mmol/L"}, {"measurement": "Glucose (mean)", "setting": "[2]; i.v., 0.33 h", "result": 6.40, "unit": "mmol/L"}, {"measurement": "Glucose (mean)", "setting": "[2]; i.v., 0.42 h", "result": 6.01, "unit": "mmol/L"}, {"measurement": "Glucose (mean)", "setting": "[2]; i.v., 0.50 h", "result": 5.86, "unit": "mmol/L"}, {"measurement": "Glucose (mean)", "setting": "[2]; i.v., 0.75 h", "result": 5.14, "unit": "mmol/L"}, {"measurement": "Glucose (mean)", "setting": "[2]; i.v., 1.00 h", "result": 4.57, "unit": "mmol/L"}, {"measurement": "Glucose (mean)", "setting": "[2]; i.v., 1.50 h", "result": 4.55, "unit": "mmol/L"}, {"measurement": "Glucose (mean)", "setting": "[2]; i.v., 2.00 h (breakfast)", "result": 5.11, "unit": "mmol/L"}, {"measurement": "Glucose (mean)", "setting": "[2]; i.v., 2.50 h", "result": 7.14, "unit": "mmol/L"}, {"measurement": "Glucose (mean)", "setting": "[2]; i.v., 3.00 h", "result": 6.31, "unit": "mmol/L"}, {"measurement": "Glucose (mean)", "setting": "[2]; i.v., 4.00 h", "result": 5.58, "unit": "mmol/L"}, {"measurement": "Glucose (mean)", "setting": "[2]; i.v., 5.00 h (lunch)", "result": 5.48, "unit": "mmol/L"}, {"measurement": "Glucose (mean)", "setting": "[2]; i.v., 6.00 h", "result": 6.53, "unit": "mmol/L"}, {"measurement": "Glucose (mean)", "setting": "[2]; i.v., 9.00 h", "result": 6.49, "unit": "mmol/L"}, {"measurement": "Glucose (mean)", "setting": "[2]; i.v., 24.00 h", "result": 6.24, "unit": "mmol/L"}, {"measurement": "Glucose (mean)", "setting": "[2]; p.o. capsule, 0.25 h", "result": 6.08, "unit": "mmol/L"}, {"measurement": "Glucose (mean)", "setting": "[2]; p.o. capsule, 0.50 h", "result": 5.87, "unit": "mmol/L"}, {"measurement": "Glucose (mean)", "setting": "[2]; p.o. capsule, 0.75 h", "result": 5.85, "unit": "mmol/L"}, {"measurement": "Glucose (mean)", "setting": "[2]; p.o. capsule, 1.00 h", "result": 5.57, "unit": "mmol/L"}, {"measurement": "Glucose (mean)", "setting": "[2]; p.o. capsule, 1.50 h", "result": 5.24, "unit": "mmol/L"}, {"measurement": "Glucose (mean)", "setting": "[2]; p.o. capsule, 2.00 h (breakfast)", "result": 5.04, "unit": "mmol/L"}, {"measurement": "Glucose (mean)", "setting": "[2]; p.o. capsule, 3.00 h", "result": 5.04, "unit": "mmol/L"}, {"measurement": "Glucose (mean)", "setting": "[2]; p.o. capsule, 4.00 h", "result": 4.43, "unit": "mmol/L"}, {"measurement": "Glucose (mean)", "setting": "[2]; p.o. capsule, 5.00 h (lunch)", "result": 4.71, "unit": "mmol/L"}, {"measurement": "Glucose (mean)", "setting": "[2]; p.o. capsule, 6.00 h", "result": 5.41, "unit": "mmol/L"}, {"measurement": "Glucose (mean)", "setting": "[2]; p.o. capsule, 9.00 h", "result": 5.42, "unit": "mmol/L"}, {"measurement": "Glucose (mean)", "setting": "[2]; p.o. capsule, 24.00 h", "result": 5.44, "unit": "mmol/L"}, {"measurement": "Glucose (mean)", "setting": "[2]; p.o. solution, 0.25 h", "result": 6.13, "unit": "mmol/L"}, {"measurement": "Glucose (mean)", "setting": "[2]; p.o. solution, 0.50 h", "result": 5.99, "unit": "mmol/L"}, {"measurement": "Glucose (mean)", "setting": "[2]; p.o. solution, 0.75 h", "result": 5.83, "unit": "mmol/L"}, {"measurement": "Glucose (mean)", "setting": "[2]; p.o. solution, 1.00 h", "result": 5.77, "unit": "mmol/L"}, {"measurement": "Glucose (mean)", "setting": "[2]; p.o. solution, 1.50 h", "result": 5.40, "unit": "mmol/L"}, {"measurement": "Glucose (mean)", "setting": "[2]; p.o. solution, 2.00 h (breakfast)", "result": 5.11, "unit": "mmol/L"}, {"measurement": "Glucose (mean)", "setting": "[2]; p.o. solution, 3.00 h", "result": 5.40, "unit": "mmol/L"}, {"measurement": "Glucose (mean)", "setting": "[2]; p.o. solution, 4.00 h", "result": 4.86, "unit": "mmol/L"}, {"measurement": "Glucose (mean)", "setting": "[2]; p.o. solution, 5.00 h (lunch)", "result": 5.12, "unit": "mmol/L"}, {"measurement": "Glucose (mean)", "setting": "[2]; p.o. solution, 6.00 h", "result": 5.60, "unit": "mmol/L"}, {"measurement": "Glucose (mean)", "setting": "[2]; p.o. solution, 9.00 h", "result": 5.68, "unit": "mmol/L"}, {"measurement": "Glucose (mean)", "setting": "[2]; p.o. solution, 24.00 h", "result": 5.60, "unit": "mmol/L"}, {"measurement": "Concentration (mean)", "setting": "[3]; 2 mg capsule, 0 h", "result": 0.0, "unit": "ng/mL"}, {"measurement": "Concentration (mean)", "setting": "[3]; 2 mg capsule, 4.00 h, listed as 388, 240 min", "result": "17 ± 5", "unit": "ng/mL"}, {"measurement": "Concentration (mean)", "setting": "[3]; 2 mg capsule, 5.00 h, listed as 388, 300 min", "result": "12 ± 3", "unit": "ng/mL"}, {"measurement": "Concentration (mean)", "setting": "[3]; 2 mg capsule, 6.00 h, listed as 388, 360 min", "result": "8 ± 4", "unit": "ng/mL"}, {"measurement": "Concentration (mean)", "setting": "[3]; 2 mg capsule, 24.00 h", "result": 0.0, "unit": "ng/mL"}, {"measurement": "Rise and peak of plasma level, tablet versus capsule", "setting": "[3]; 2 mg p.o.", "result": "rises rather more rapidly after administration of the tablet and reaches its peak somewhat earlier"}, {"measurement": "Time at which level reaches / falls below the detection limit", "setting": "[3]; 2 mg p.o.", "result": "≥ 6", "unit": "h"}, {"measurement": "Time at which level reaches / falls below the detection limit", "setting": "[3]; 2 mg p.o., listed as AG-EE 398 ZW", "result": "about 6 hours"}, {"measurement": "Maximum concentration", "setting": "[3]; 2 mg tablet p.o.", "result": "83.5 ± 25.5", "unit": "ng/mL"}, {"measurement": "Concentration (mean)", "setting": "[3]; 2 mg tablet, 0 h", "result": 0.0, "unit": "ng/mL"}, {"measurement": "Concentration (mean)", "setting": "[3]; 2 mg tablet, 4.00 h, 240 min", "result": 19.1, "unit": "ng/mL"}, {"measurement": "Concentration (mean)", "setting": "[3]; 2 mg tablet, 24.00 h", "result": 0.0, "unit": "ng/mL"}]}]}
